# Like-named read-outs stand apart in the source and are kept apart here.
# Experiments:
# [1] = test system: Treponema hyodysenteriae; assay: In vitro activity (MIC) against Treponema hyodysenteriae, agar dilution; format: cell-based; details: for MIC: Brachyspira hyodysenteriae, read-out: MIC (minimum inhibitory concentration); for MIC (minimum inhibitory concentration): 72 hours anaerobic, 37° C.
# Method: The test organisms were grown anaerobically for 96 hours on Trypticase soy agar plate supplemented with 5% sheep blood. Appropriate amounts of physiological saline solution were poured into each agar plate to make a cell-suspension of test organism, which was finally adjusted at the cell density of 10^6 colony forming units (CFU)/ml. Freshly prepared Trypticase soy agar plates supplemented with 5% sheep blood which were containing serial two-fold dilutions of each of the compounds as mentioned below were inoculated with a loopful (about 5 μl) of the above-mentioned cell-suspension. The MIC (minimum inhibitory concentration) values were determined after 72 hours of anaerobical incubation at 37° C. in Gas Pak jars.
# [2] = test system: Treponema hyodysenteriae S5709; assay: Protective effect against experimental infection of Treponema hyodysenteriae in mice; format: in vivo, mice (ddy); details: 5 mg/kg, oral, once a day on first and second day after challenge, one week after infection
# Method: 5 week-old mice (ddy, .male.) were used in these experiments. Mice were orally infected with 1.8×10^7 cells of Treponema hyodysenteriae S5709 grown for 96 hours on Trypticase soy agar plate supplemented with 5% sheep blood. On the first and second day after challenge, test compounds were given by oral administration once a day. One week after infection, the efficacy of the antibiotics on mice suffering from dysentery was determined as follows. Cecum contents from infected mice were suspended in 2 ml of saline solution, diluted twenty times with Trypticase soy medium supplemented with 5% sheep blood and cultured for T. hyodysenteriae on agar plate of Trypticase soy medium supplemented with 5% sheep blood at 37° C. for 72 hours in Gas Pak jars. The numbers of T. hyodysenteriae colony appeared on the plates were counted. Mice that gave no colony formations of T. hyodysenteriae were regarded as cured mice.
# [3] = test system: Treponema hyodysenteriae ATCC31212; assay: Therapeutic effect on experimentally induced swine dysentery in piglets; format: in vivo, piglets (Landace×Large White crossbred); details: solution in water; for (average) days of disappearance of fecal T. h: detection limit 10^2 CFU/g of feces
# Method: Seven piglets, LW (Landace×Large White crossbred) male, were used. The initial body weight at the time of inoculation of infective materials ranged from 6.5 to 8.5 kg. Piglets were divided into 4 groups ([…] and 1 group of 1 head) and were maintained in stainless cages (90×90 cm) with raised plastic net floors at 28±2° C. Feed [Milk replacer for piglet] and water were supplied ad libitum except the duration of fasting. Infective materials used were prepared as follows. A total of 300 g of mucous haemorrhagic feces, large intestinal (from caecum through rectum) contents, and mucosa obtained from a clinically affected pig (3 days after onset of swine dysentery), which was previously inoculated into its caecum with pure culture of Treponema hyodysenteriae ATCC31212 (about 3×10^9 colony forming units/head) by surgical operation, were suspended, diluted finally 2.5 times with phosphate-bufferized saline and minced by biotron homogenizer (trademark, made by Biotrona Co., Ltd.).
# For the purpose of infection, all piglets were inoculated individually with about 90 g of the infective materials after 22 hours' fasting.
# Treatment were done once a day for 2 consecutive days from the 5th day post inoculation.
# [4] = Growth promoting effect in pigs; format: in vivo, pigs (LWD strain); details: for Efficiency of feed utilization: 6 weeks, control 2.19; for Average body weight gain at the 6th week after the feeding: control 18.0; for Average final body weight at the 6th week after the starting of the feeding: control 28.0
# Description: Five sets of 24 pigs (33 days-old, LWD strain) were used. Each 24 pigs were divided into 4 groups, i.e. 3 treatment groups and a control group. Each group consisted of 3 barrows and 3 female pigs. They were fed continuously with the feed described in Table 6.
# The above basal ration I +
# [5] = Growth promoting effect in male broiler chickens; format: in vivo, male broiler chickens (chunky); details: for Average body weight gain at one week after the feeding: control 95.3; for Average final body weight at one week after the feeding: control 183.8; for Efficiency of feed utilization: one week, control 2.02
# Description: 8-Days-old male broiler chickens (chunky) were divided into 3 groups i.e. 2 treatment groups and a control group, each group of which consisted of 10 chicks. They were fed continuously with the feed described in Table 8.
# The above Basal ration II +
# [6] = Acute toxicity test in mice; format: in vivo, ddy mice; details: single intravenous dose 20 mg (1 g/kg), five mice, 10 days of observation
# Method: Further, in the acute toxicity test, each of five ddy mice (5-week old, male, 20 g in weight), was intraveneously given a single dose of WS-1627A, B, C or D 20 mg (lg/kg) and all survived.
# [7] = Solubility
# [8] = background statement; cited from earlier work
# [9] = intramuscularly 10 mg/kg body weight × 2 day, 1 pig
# [10] = orally 2.5 mg/kg body weight × 2 day, 2 pigs
# [11] = Treatment group I, 10 ppm in feed
# [12] = Treatment group II, 20 ppm in feed
# [13] = Treatment group III, 40 ppm in feed
# [14] = Treatment group II, 50 ppm in feed
compound,measurement,setting,value
"CC(=O)C1OC(Oc2ccc(C=C(C)C(=O)NC3C(O)C(O)C4OCOC4C3O)cc2O)C(O)C1O (stereo not shown) [WS-1627B, hygromycin]",MIC,[1]; 72 h,< 0.8 µg/mL
same,MIC,"[1]; ATCC31212, 72 h",< 0.8 µg/mL
same,antimicrobial activities against Treponema hyodysenteriae,[1]; statement in words,strong antimicrobial activities
same,MIC (minimum inhibitory concentration),[1]; strain S5709,< 0.8 µg/mL
same,MIC (minimum inhibitory concentration),[1]; strain TH81013,< 0.8 µg/mL
same,cured/treated,[2]; listed as WS1627B,7/7
same,(average) days of recovery to normal stool,[3]; [9],1 days
same,(average) days of disappearance of fecal T. h,[3]; [9],1 days
same,(average) days of recovery to normal stool,[3]; [10],2 days
same,(average) days of disappearance of fecal T. h,[3]; [10],2 days
same,Efficiency of feed utilization,[4]; [11],2.05
same,Average body weight gain at the 6th week after the feeding,[4]; [11],19.6 kg
same,Average final body weight at the 6th week after the starting of the feeding,[4]; [11],29.6 kg
same,Efficiency of feed utilization,[4]; [12],2.11
same,Average body weight gain at the 6th week after the feeding,[4]; [12],19.2 kg
same,Average final body weight at the 6th week after the starting of the feeding,[4]; [12],29.2 kg
same,Efficiency of feed utilization,[4]; [13],2.09
same,Average body weight gain at the 6th week after the feeding,[4]; [13],18.9 kg
same,Average final body weight at the 6th week after the starting of the feeding,[4]; [13],28.9 kg
same,Average body weight gain at one week after the feeding,[5]; [11],116.5 g
same,Average final body weight at one week after the feeding,[5]; [11],204.5 g
same,Efficiency of feed utilization,[5]; [11],2.00
same,Average body weight gain at one week after the feeding,[5]; [14],121 g
same,Average final body weight at one week after the feeding,[5]; [14],209 g
same,Efficiency of feed utilization,[5]; [14],1.67
same,survival,[6],all survived
same,toxic symptom,[6],no toxic symptom was observed
same,Solubility,[7]; acetone,Insoluble
same,Solubility,[7]; chloroform,Insoluble
same,Solubility,[7]; ethyl acetate,Insoluble
same,Solubility,[7]; methanol,Soluble
same,Solubility,[7]; water,Soluble
"CC(=O)C1OC(Oc2ccc(C=C(C)C(=O)NC3C(O)C(O)C4OCOC4C3O)cc2O)C(O)C1O (stereo not drawn) [WS-1627D, epi-hygromycin]",cured/treated,[2]; listed as WS1627D,4/7
COC(=O)N/N=C/c1c[n+]([O-])c2ccccc2[n+]1[O-] [carbadox],mutagenicity,[8],strong mutagenic substance

# Source: US4906618A, “Prophylactic and therapeutic agent against swine dysentery” (Fujisawa Pharmaceutical Co., Ltd., priority 1986, dated 1990)
